“Also recorded” adds a separate entry of the source.
Assays:
SARS-CoV-2 = experiment: Sx direct injection into SARS-CoV-2 suspension in MEM, Vero E6 plaque assay; format: cell-based
[1] = test system: SARS-CoV-2 (USA-WA1/2020 strain); experiment: Direct injection into SARS-CoV-2 viral suspension, plaque assay on Vero E6 cells; format: cell-based; conditions: for Effect on viral burden at the lower volumes: formula 2 and 5 μls, or corresponding propionic acid 1.4 and 3.9 μls, isoamyl hexanoates 0.6 and 1.1 μls
[2] = molecular target: receptor binding domain (RBD) of the SARS-CoV-2 spike protein to ACE2 (Severe acute respiratory syndrome coronavirus 2, UniProt P0DTC2); conditions: cited from earlier work

| Molecule | Volume necessary for a relative immediate inactivation of the virus (SARS-CoV-2; acid alone) | Volume necessary to get any appreciable activity (SARS-CoV-2; acid alone) | Decline in viral burden after 360 mins post-addition ([1]; 37° C., 1.4 μls alone) | Decline in viral burden after 360 mins post-addition ([1]; 37° C., 3.9 μls alone) | Effect on viral burden at the lower volumes [1] | Reduction of activity on adding peptide to the virus [2] | Reduction in activity of the virus (SARS-CoV-2; 1.1 μL alone, at about 100 min) | Virus activity after 300 min relative to control (SARS-CoV-2; esters alone) | General reduction in virus activity within about 30 min (SARS-CoV-2; esters alone, over the range of concentrations tested) | Reduction in activity over the course of 300 minutes (SARS-CoV-2; highest concentration of 4.6 μL alone) | Suppression of SARS-CoV-2 by the component alone ([1]; 37° C., all treatment arms) |
| --- | --- | --- | --- | --- | --- | --- | --- | --- | --- | --- | --- |
| CCC(=O)O [propionic acid] | at least 15.4 μL | up to 7.7 μL | 0.29 log10 PFU/ml | 0.98 log10 PFU/ml | minimal reduction of viral burden | – | – | – | – | – | – |
| GluGluLeuGlu | – | – | – | – | – | 34% | – | – | – | – | – |
| isoamyl hexanoates | – | – | – | – | minimal reduction of viral burden | – | ~1 log | about equaled that of the control; also recorded: approximately equaled that of the control | ~1 log | 1 order of magnitude | substantially less effective |
